Assay results published in patent EP0900207B1, “PYRAZINONE THROMBIN INHIBITORS” (MERCK & CO., INC., priority 1996, dated 1997).

Tested on: Male Sprague-Dawley rats
Assay: Rat ferric chloride assay of thrombotic occlusion of the carotid artery
Format: in vivo
Details: continuous intravenous infusion 10 µg/kg/min
Description: Studies of 3-(2-Phenylethylamino)-6-methyl-1-(2-amino-6-methyl-5-methylenecarboxamidomethylpyridinyl)-2-pyridinone using the following rat ferric chloride assay substantially as described in Thrombosis Research, No. 60, page 269(1990) by Kurtz et al were used to determine in vivo activity of the thrombin inhibitors of the invention. Male Sprague-Dawley rats (body weights 200-350 grams) were anesthetized with dial-urethane solution (0.1 ml/100 gm body weight i.p.), and a lateral tail vein was cannulated with a 23 gauge needle connected to a 12 inch length of PE50 tubing. The tubing was attached to a 3-way valve by a tubing adapter. Saline (control) or test compound, as appropriate, was administered via the tail vein catheter. A tracheostomy was performed with a 0.75 inch length of PE205 tubing. The right carotid artery is exposed and a 1.3 mm diameter Doppler flow probe was placed on the vessel. Body temperature was maintained at 37°C using a heat lamp.
6 rats were randomized to continuous intravenous infusions of saline or test compound administered via the tail vein. Test compound was administered at a rate of 10 µg/kg/min. Treatment infusions were initiated 60 min before the placement of a 3 mm square piece of Whatman No. 1 filter paper saturated with 35% FeCl3 onto the exposed carotid artery distal to the flow probe. […]

3-(2-Phenylethylamino)-6-methyl-1-(2-amino-6-methyl-5-methylenecarboxamidomethylpyridinyl)-2-pyridinone [Example LXXXII]
rats showing evidence of thrombotic occlusion (observed up to 90 minutes after application of FeCl3): None
efficacy against thrombotic occlusion (started 60 min before 35% FeCl3 on carotid artery): fully efficacious
